{"source": "patent US20200288711A1", "about": "“Pyrimidin-4-Carbamate or Urea Derivatives As Herbicides” (Syngenta Participations AG, priority 2017, published 2020)", "data": [{"test_system": "Alopecurus myosuroides (ALOMY)", "experiment": "B1 pre-emergence herbicidal activity", "type": "in vivo", "set-up": "key: 5=total damage to plant; 0=no damage to plant", "settings": "Test 1b, rate 1000 g/ha, evaluated after 13 days, score 0-5 (5=total damage, 0=no damage)", "method": "(§1) Seeds of a variety of test species were sown in standard soil in pots: Triticum aestivium (TRZAW), Avena fatua (AVEFA), Alopecurus myosuroides (ALOMY), Echinochloa crus-galli (ECHCG), Lolium perenne (LOLPE), Zea mays (ZEAMX), Abutilon theophrasti (ABUTH), Amaranthus retroflexus (AMARE) and Setaria faberi (SETFA). After cultivation for one day (pre-emergence) under controlled conditions in a glasshouse (at 24/16° C., day/night; 14 hours light; 65% humidity), the plants were sprayed with an aqueous spray solution derived from the formulation of the technical active ingredient in acetone/water (50:50) solution containing 0.5% Tween 20 (polyoxyethelyene sorbitan monolaurate, CAS RN 9005-64-5). The test plants were then grown in a glasshouse under controlled conditions (at 24/16° C., day/night; 14 hours light; 65% humidity) and watered twice daily. After 13 days, the test was evaluated (5=total damage to plant; 0=no damage to plant).", "values": [{"smiles": "CC(C)(C)OC(=O)Nc1cnc(-c2cncnc2)nc1C(F)(F)F", "note": "[Compound E11]", "Pre-emergence herbicidal activity, ALOMY": 1}, {"smiles": "CC(C)(C)OC(=O)Nc1cnc(-c2cncc(C#N)c2)nc1C(F)(F)F", "note": "[Compound E12, tert-butyl N-[2-(5-cyano-3-pyridyl)-4-(trifluoromethyl)pyrimidin-5-yl]carbamate]", "Pre-emergence herbicidal activity, ALOMY": 0}, {"smiles": "CN(C)C(=O)Nc1cnc(-c2cncc(F)c2)nc1C(F)(F)F", "note": "[Compound E13]", "Pre-emergence herbicidal activity, ALOMY": 0}]}, {"test_system": "Avena fatua (AVEFA)", "experiment": "B1 pre-emergence herbicidal activity", "type": "in vivo", "set-up": "key: 5=total damage to plant; 0=no damage to plant", "settings": "Test 1b, rate 1000 g/ha, evaluated after 13 days, score 0-5 (5=total damage, 0=no damage)", "method": "as §1", "values": [{"smiles": "CC(C)(C)OC(=O)Nc1cnc(-c2cncnc2)nc1C(F)(F)F", "note": "[Compound E11]", "Pre-emergence herbicidal activity, AVEFA": 2}, {"smiles": "CC(C)(C)OC(=O)Nc1cnc(-c2cncc(C#N)c2)nc1C(F)(F)F", "note": "[Compound E12, tert-butyl N-[2-(5-cyano-3-pyridyl)-4-(trifluoromethyl)pyrimidin-5-yl]carbamate]", "Pre-emergence herbicidal activity, AVEFA": 0}, {"smiles": "CN(C)C(=O)Nc1cnc(-c2cncc(F)c2)nc1C(F)(F)F", "note": "[Compound E13]", "Pre-emergence herbicidal activity, AVEFA": 1}]}, {"test_system": "Lolium perenne (LOLPE)", "experiment": "B1 pre-emergence herbicidal activity", "type": "in vivo", "set-up": "key: 5=total damage to plant; 0=no damage to plant", "settings": "Test 1b, rate 1000 g/ha, evaluated after 13 days, score 0-5 (5=total damage, 0=no damage)", "method": "as §1", "values": [{"smiles": "CC(C)(C)OC(=O)Nc1cnc(-c2cncnc2)nc1C(F)(F)F", "note": "[Compound E11]", "Pre-emergence herbicidal activity, LOLPE": 1}, {"smiles": "CC(C)(C)OC(=O)Nc1cnc(-c2cncc(C#N)c2)nc1C(F)(F)F", "note": "[Compound E12, tert-butyl N-[2-(5-cyano-3-pyridyl)-4-(trifluoromethyl)pyrimidin-5-yl]carbamate]", "Pre-emergence herbicidal activity, LOLPE": 0}, {"smiles": "CN(C)C(=O)Nc1cnc(-c2cncc(F)c2)nc1C(F)(F)F", "note": "[Compound E13]", "Pre-emergence herbicidal activity, LOLPE": 1}]}, {"test_system": "Triticum aestivium (TRZAW)", "experiment": "B1 pre-emergence herbicidal activity", "type": "in vivo", "set-up": "key: 5=total damage to plant; 0=no damage to plant", "settings": "Test 1b, rate 1000 g/ha, evaluated after 13 days, score 0-5 (5=total damage, 0=no damage)", "method": "as §1", "values": [{"smiles": "CC(C)(C)OC(=O)Nc1cnc(-c2cncnc2)nc1C(F)(F)F", "note": "[Compound E11]", "Pre-emergence herbicidal activity, TRAZW": 0}, {"smiles": "CC(C)(C)OC(=O)Nc1cnc(-c2cncc(C#N)c2)nc1C(F)(F)F", "note": "[Compound E12, tert-butyl N-[2-(5-cyano-3-pyridyl)-4-(trifluoromethyl)pyrimidin-5-yl]carbamate]", "Pre-emergence herbicidal activity, TRAZW": 0}, {"smiles": "CN(C)C(=O)Nc1cnc(-c2cncc(F)c2)nc1C(F)(F)F", "note": "[Compound E13]", "Pre-emergence herbicidal activity, TRAZW": 0}]}, {"test_system": "Setaria faberi (SETFA)", "experiment": "B1 pre-emergence herbicidal activity", "type": "in vivo", "settings": "Test 1b, rate 1000 g/ha, evaluated after 13 days, score 0-5 (5=total damage, 0=no damage)", "method": "as §1", "values": [{"smiles": "CC(C)(C)OC(=O)Nc1cnc(-c2cncnc2)nc1C(F)(F)F", "note": "[Compound E11]", "Pre-emergence herbicidal activity, SETFA": 4}, {"smiles": "CC(C)(C)OC(=O)Nc1cnc(-c2cncc(C#N)c2)nc1C(F)(F)F", "note": "[Compound E12, tert-butyl N-[2-(5-cyano-3-pyridyl)-4-(trifluoromethyl)pyrimidin-5-yl]carbamate]", "Pre-emergence herbicidal activity, SETFA": 4}, {"smiles": "CN(C)C(=O)Nc1cnc(-c2cncc(F)c2)nc1C(F)(F)F", "note": "[Compound E13]", "Pre-emergence herbicidal activity, SETFA": 4}]}, {"test_system": "Echinochloa crus-galli (ECHCG)", "experiment": "B1 pre-emergence herbicidal activity", "type": "in vivo", "settings": "Test 1b, rate 1000 g/ha, evaluated after 13 days, score 0-5 (5=total damage, 0=no damage)", "method": "as §1", "values": [{"smiles": "CC(C)(C)OC(=O)Nc1cnc(-c2cncnc2)nc1C(F)(F)F", "note": "[Compound E11]", "Pre-emergence herbicidal activity, ECHCG": 3}, {"smiles": "CC(C)(C)OC(=O)Nc1cnc(-c2cncc(C#N)c2)nc1C(F)(F)F", "note": "[Compound E12, tert-butyl N-[2-(5-cyano-3-pyridyl)-4-(trifluoromethyl)pyrimidin-5-yl]carbamate]", "Pre-emergence herbicidal activity, ECHCG": 3}, {"smiles": "CN(C)C(=O)Nc1cnc(-c2cncc(F)c2)nc1C(F)(F)F", "note": "[Compound E13]", "Pre-emergence herbicidal activity, ECHCG": 3}]}, {"test_system": "Alopecurus myosuroides (ALOMY)", "experiment": "B2 post-emergence herbicidal activity", "type": "in vivo", "set-up": "key: 5=total damage to plant; 0=no damage to plant", "settings": "Test 2b, rate 1000 g/ha, evaluated after 13 days, score 0-5 (5=total damage, 0=no damage)", "method": "(§2) Seeds of a variety of test species were sown in standard soil in pots: Triticum aestivium (TRZAW), Avena fatua (AVEFA), Alopecurus myosuroides (ALOMY), Echinochloa crus-galli (ECHCG), Lolium perenne (LOLPE), Zea mays (ZEAMX), Abutilon theophrasti (ABUTH), Amaranthus retroflexus (AMARE) and Setaria faberi (SETFA). After 8 days cultivation (post-emergence) under controlled conditions in a glasshouse (at 24/16° C., day/night; 14 hours light; 65% humidity), the plants were sprayed with an aqueous spray solution derived from the formulation of the technical active ingredient in acetone/water (50:50) solution containing 0.5% Tween 20 (polyoxyethelyene sorbitan monolaurate, CAS RN 9005-64-5). The test plants were then grown in a glasshouse under controlled conditions (at 24/16° C., day/night; 14 hours light; 65% humidity) and watered twice daily. After 13 days, the test was evaluated (5=total damage to plant; 0=no damage to plant).", "values": [{"smiles": "CC(C)(C)OC(=O)Nc1cnc(-c2cncnc2)nc1C(F)(F)F", "note": "[Compound E11]", "Control of weed species after post-emergence application, ALOMY": 0}, {"smiles": "CC(C)(C)OC(=O)Nc1cnc(-c2cncc(C#N)c2)nc1C(F)(F)F", "note": "[Compound E12, tert-butyl N-[2-(5-cyano-3-pyridyl)-4-(trifluoromethyl)pyrimidin-5-yl]carbamate]", "Control of weed species after post-emergence application, ALOMY": 0}, {"smiles": "CN(C)C(=O)Nc1cnc(-c2cncc(F)c2)nc1C(F)(F)F", "note": "[Compound E13]", "Control of weed species after post-emergence application, ALOMY": 1}]}, {"test_system": "Avena fatua (AVEFA)", "experiment": "B2 post-emergence herbicidal activity", "type": "in vivo", "set-up": "key: 5=total damage to plant; 0=no damage to plant", "settings": "Test 2b, rate 1000 g/ha, evaluated after 13 days, score 0-5 (5=total damage, 0=no damage)", "method": "as §2", "values": [{"smiles": "CC(C)(C)OC(=O)Nc1cnc(-c2cncnc2)nc1C(F)(F)F", "note": "[Compound E11]", "Control of weed species after post-emergence application, AVEFA": 3}, {"smiles": "CC(C)(C)OC(=O)Nc1cnc(-c2cncc(C#N)c2)nc1C(F)(F)F", "note": "[Compound E12, tert-butyl N-[2-(5-cyano-3-pyridyl)-4-(trifluoromethyl)pyrimidin-5-yl]carbamate]", "Control of weed species after post-emergence application, AVEFA": 2}, {"smiles": "CN(C)C(=O)Nc1cnc(-c2cncc(F)c2)nc1C(F)(F)F", "note": "[Compound E13]", "Control of weed species after post-emergence application, AVEFA": 3}]}, {"test_system": "Echinochloa crus-galli (ECHCG)", "experiment": "B2 post-emergence herbicidal activity", "type": "in vivo", "set-up": "key: 5=total damage to plant; 0=no damage to plant", "settings": "Test 2b, rate 1000 g/ha, evaluated after 13 days, score 0-5 (5=total damage, 0=no damage)", "method": "as §2", "values": [{"smiles": "CC(C)(C)OC(=O)Nc1cnc(-c2cncnc2)nc1C(F)(F)F", "note": "[Compound E11]", "Control of weed species after post-emergence application, ECHCG": 4}, {"smiles": "CC(C)(C)OC(=O)Nc1cnc(-c2cncc(C#N)c2)nc1C(F)(F)F", "note": "[Compound E12, tert-butyl N-[2-(5-cyano-3-pyridyl)-4-(trifluoromethyl)pyrimidin-5-yl]carbamate]", "Control of weed species after post-emergence application, ECHCG": 2}, {"smiles": "CN(C)C(=O)Nc1cnc(-c2cncc(F)c2)nc1C(F)(F)F", "note": "[Compound E13]", "Control of weed species after post-emergence application, ECHCG": 4}]}, {"test_system": "Lolium perenne (LOLPE)", "experiment": "B2 post-emergence herbicidal activity", "type": "in vivo", "set-up": "key: 5=total damage to plant; 0=no damage to plant", "settings": "Test 2b, rate 1000 g/ha, evaluated after 13 days, score 0-5 (5=total damage, 0=no damage)", "method": "as §2", "values": [{"smiles": "CC(C)(C)OC(=O)Nc1cnc(-c2cncnc2)nc1C(F)(F)F", "note": "[Compound E11]", "Control of weed species after post-emergence application, LOLPE": 2}, {"smiles": "CC(C)(C)OC(=O)Nc1cnc(-c2cncc(C#N)c2)nc1C(F)(F)F", "note": "[Compound E12, tert-butyl N-[2-(5-cyano-3-pyridyl)-4-(trifluoromethyl)pyrimidin-5-yl]carbamate]", "Control of weed species after post-emergence application, LOLPE": 1}, {"smiles": "CN(C)C(=O)Nc1cnc(-c2cncc(F)c2)nc1C(F)(F)F", "note": "[Compound E13]", "Control of weed species after post-emergence application, LOLPE": 3}]}, {"test_system": "Setaria faberi (SETFA)", "experiment": "B2 post-emergence herbicidal activity", "type": "in vivo", "set-up": "key: 5=total damage to plant; 0=no damage to plant", "settings": "Test 2b, rate 1000 g/ha, evaluated after 13 days, score 0-5 (5=total damage, 0=no damage)", "method": "as §2", "values": [{"smiles": "CC(C)(C)OC(=O)Nc1cnc(-c2cncnc2)nc1C(F)(F)F", "note": "[Compound E11]", "Control of weed species after post-emergence application, SETFA": 4}, {"smiles": "CC(C)(C)OC(=O)Nc1cnc(-c2cncc(C#N)c2)nc1C(F)(F)F", "note": "[Compound E12, tert-butyl N-[2-(5-cyano-3-pyridyl)-4-(trifluoromethyl)pyrimidin-5-yl]carbamate]", "Control of weed species after post-emergence application, SETFA": 5}, {"smiles": "CN(C)C(=O)Nc1cnc(-c2cncc(F)c2)nc1C(F)(F)F", "note": "[Compound E13]", "Control of weed species after post-emergence application, SETFA": 5}]}, {"test_system": "Triticum aestivium (TRZAW)", "experiment": "B2 post-emergence herbicidal activity", "type": "in vivo", "set-up": "key: 5=total damage to plant; 0=no damage to plant", "settings": "Test 2b, rate 1000 g/ha, evaluated after 13 days, score 0-5 (5=total damage, 0=no damage)", "method": "as §2", "values": [{"smiles": "CC(C)(C)OC(=O)Nc1cnc(-c2cncnc2)nc1C(F)(F)F", "note": "[Compound E11]", "Control of weed species after post-emergence application, TRAZW": 1}, {"smiles": "CC(C)(C)OC(=O)Nc1cnc(-c2cncc(C#N)c2)nc1C(F)(F)F", "note": "[Compound E12, tert-butyl N-[2-(5-cyano-3-pyridyl)-4-(trifluoromethyl)pyrimidin-5-yl]carbamate]", "Control of weed species after post-emergence application, TRAZW": 0}, {"smiles": "CN(C)C(=O)Nc1cnc(-c2cncc(F)c2)nc1C(F)(F)F", "note": "[Compound E13]", "Control of weed species after post-emergence application, TRAZW": 2}]}]}
